Test results taken from patent US20040162263A1, “Pharmaceutical formulations targeting specific regions of the gastrointesinal tract” (priority 2002, published 2004).

What was measured:
[1] = Physico-chemical properties of decitabine (solubility, stability); type: physicochemical; details: room temp
[2] = Pharmacokinetics of 9-nitro-camptothecin (9NC) in IVAP beagle dog model; type: in vivo, beagle dogs
Description: Blood samples were taken systemic and from the portal vein through a sampling/delivery vascular port previously implanted, then plasma was separated by centrifugation and kept frozen at −80° C. until analysis.
The samples were analyzed in a Perkin Elmer liquid chromatography-tandem mass spectrometer system with a PE LC-200 Micro pump, a PE200 Autosampler and a PE Sciex API 365 mass spectrometry unit.
Adult male beagle dogs (between the ages of 1 and 5 years and weighed between 9 and 16 kg) were obtained from Summit Ridge Farms, Susquehanna, Pa. The IVAP dogs were prepared by using a protocol similar to the one used for pentostatin experiments described above.
On the morning of the test, each animal is weighed and placed in the sling. An IV catheter is installed in the brachial vein for systemic blood sampling with a multiuse vacutainer needle adapter. This is flushed with heparinized saline (50 units/ml) to maintain potency between sampling. When necessary, a 20 g or 22 g right-angled Huber infusion set would be placed in the PV port and attached to a three-way stopcock for PV blood sampling.
The preparation of the dose depends on the route of study. In case of IV and PV administration, the drug was dissolved in dimethylacetamide (DMA) at 5 mg/ml and 0.5 ml of the DMA concentrate filtered through a […] filter into 4.5 ml of diluent (51% PEG-400 49% 0.001 M H3PO4) prior to administration to the brachial or portal vein. In the case of all other infusions, as well as oral administration, the drug was dissolved in vegetable oil to a concentration of 1 mg/ml and drawn up into dosing syringes. Animals were dosed IV at 0.1 and 0.2 mg/kg and 0.2 mg/kg for all the other routes of administration tested.
In intravascular studies, the dose is administered via a second catheter and the entire volume is delivered within 45 seconds.
In portal vein studies, the dose is also administered via an additional catheter over a 30 min time period.
In the case of oral dosages, the dose is delivered to the back of the mouth with an appropriate size syringe and is followed with 5 ml of tap water to assist swallowing and clearance of the dose from the mouth. Capsules were administered similarly by placing them at the back of the mouth and giving around 5 ml of water to facilitate swallowing.
For all other tests, the dosage is infused into the appropriate intestinal port and flushed with 2-3 ml of sterile saline. The dead space volume of the ports and tubing vary slightly between individuals, but are generally less than 0.5 ml total. […]
Systemic blood samples allow the calculation of AUC0-inf after oral capsule administration only and portal vein AUC for all the routes of administration.

[3] = 9-NC 0.2 mg/kg COLON port, 0.17 hr
[4] = 9-NC 0.2 mg/kg ileum port, 0.17 hr
[5] = 9-NC 0.2 mg/kg jejunal port, 0.17 hr
[6] = portal vein samples, 9-NC via COLON port
[7] = portal vein samples, 9-NC via ILEUM port
[8] = portal vein samples, 9-NC via JEJUNUM port
[9] = systemic samples, 9-NC via COLON port
[10] = systemic samples, 9-NC via ILEUM port
[11] = systemic samples, 9-NC via JEJUNUM port

Nc1ncn([C@H]2C[C@H](O)[C@@H](CO)O2)c(=O)n1 [Decitabine monohydrate]
stability [1]: stable

CC[C@@]1(O)C(=O)OCc2c1cc1n(c2=O)Cc2cc3c([N+](=O)[O-])cccc3nc2-1 [9-NC, 9-nitro-20(S)-camptothecin]
Mean plasma concentration, Portal Vein [2, 3]: 0.53 ± 0.05 ng/mL | Mean plasma concentration, Systemic [2, 3]: 0.117 ng/mL | Mean plasma concentration, Portal Vein [2, 4]: 0.44 ± 0.10 ng/mL | Mean plasma concentration, Systemic [2, 4]: 0.11 ± 0.01 ng/mL | Mean plasma concentration, Portal Vein [2, 5]: 0.54 ± 0.22 ng/mL | Mean plasma concentration, Systemic [2, 5]: BQL | Mean plasma concentration, Portal Vein ([2]; COLON port, 0.5 hr): 0.37 ± 0.12 ng/mL | Mean plasma concentration, Systemic ([2]; COLON port, 0.5 hr): 0.1 ng/mL | Mean plasma concentration, Portal Vein ([2]; COLON port, 1 hr): 0.37 ± 0.15 ng/mL | Mean plasma concentration, Systemic ([2]; COLON port, 1 hr): 0.114 ng/mL | Mean plasma concentration, Systemic ([2]; COLON port, 1.5 hr): BQL | Mean plasma concentration, Portal Vein ([2]; COLON port, 2 hr): 0.16 ± 0.05 ng/mL | Mean plasma concentration, Systemic ([2]; COLON port, 2 hr): 0.134 ng/mL | Mean plasma concentration, Systemic ([2]; COLON port, 4 hr): BQL | Mean plasma concentration, Systemic ([2]; COLON port, 6 hr): BQL | Mean plasma concentration, Systemic ([2]; COLON port, 8 hr): BQL | Mean plasma concentration, Systemic ([2]; COLON port, 12 hr): BQL | Mean plasma concentration, Systemic ([2]; COLON port, 24 hr): 0.11 ng/mL | clearance ([2]; IV 0.1 mg/kg): 29.3 ± 3.17 mL/min/kg | half-life ([2]; IV 0.1 mg/kg, systemic): 0.88 ± 0.45 h | clearance ([2]; IV 0.2 mg/kg): 28.8 ± 13 mL/min/kg | Bioavailability (high iv dose) ([2]; Intracolon): 0.1 ± 0.1% | Bioavailability (low iv dose) ([2]; Intracolon): 0.1 ± 0.1% | Bioavailability, Average ([2]; Intracolon): 0.1% | Mean AUC0-inf of 9-NC, Portal Vein AUC ([2]; Intracolon 0.2 mg/kg): 1.48 ± 0.29 ng·h/mL | Mean AUC0-inf of 9-NC, Systemic AUC ([2]; Intracolon 0.2 mg/kg): 0.07 ± 0.06 ng·h/mL | Bioavailability (high iv dose) ([2]; Intraileum): 1.6 ± 1.1% | Bioavailability (low iv dose) ([2]; Intraileum): 1.6 ± 1.2% | Bioavailability, Average ([2]; Intraileum): 1.6% | Mean AUC0-inf of 9-NC, Portal Vein AUC ([2]; Intraileum 0.2 mg/kg): 1.76 ± 0.95 ng·h/mL | Mean AUC0-inf of 9-NC, Systemic AUC ([2]; Intraileum 0.2 mg/kg): 1.65 ± 1.15 ng·h/mL | Bioavailability (high iv dose) ([2]; Intrajejunal): 3.0 ± 3.2% | Bioavailability (low iv dose) ([2]; Intrajejunal): 3.0 ± 3.2% | Bioavailability, Average ([2]; Intrajejunal): 3.2% | Mean AUC0-inf of 9-NC, Portal Vein AUC ([2]; Intrajejunal 0.2 mg/kg): 4.46 ± 4.00 ng·h/mL | Mean AUC0-inf of 9-NC, Systemic AUC ([2]; Intrajejunal 0.2 mg/kg): 1.03 ± 1.34 ng·h/mL | Mean AUC0-inf of 9-NC, Portal Vein AUC ([2]; Intravenous - High (0.2 mg/kg)): 93.61 ± 17.02 ng·h/mL | Mean AUC0-inf of 9-NC, Systemic AUC ([2]; Intravenous - High (0.2 mg/kg)): 118.33 ± 21.82 ng·h/mL | Mean AUC0-inf of 9-NC, Portal Vein AUC ([2]; Intravenous - Low (0.1 mg/kg)): 45.05 ± 4.08 ng·h/mL | Mean AUC0-inf of 9-NC, Systemic AUC ([2]; Intravenous - Low (0.1 mg/kg)): 57.25 ± 5.84 ng·h/mL | Bioavailability (high iv dose) ([2]; Oral - capsule): 4.1 ± 3.8% | Bioavailability (low iv dose) ([2]; Oral - capsule): 4.2 ± 4.0% | Bioavailability, Average ([2]; Oral - capsule): 4.1% | Mean AUC0-inf of 9-NC, Portal Vein AUC ([2]; Oral - capsule 0.2 mg/kg): 11.48 ± 1.50 ng·h/mL | Mean AUC0-inf of 9-NC, Systemic AUC ([2]; Oral - capsule 0.2 mg/kg): 4.75 ± 4.61 ng·h/mL | Bioavailability (high iv dose) ([2]; Oral - suspension): 0.4 ± 0.6% | Bioavailability (low iv dose) ([2]; Oral - suspension): 0.4 ± 0.6% | Bioavailability, Average ([2]; Oral - suspension): 0.4% | Mean AUC0-inf of 9-NC, Portal Vein AUC ([2]; Oral - suspension 0.2 mg/kg): 11.97 ± 9.88 ng·h/mL | Mean AUC0-inf of 9-NC, Systemic AUC ([2]; Oral - suspension 0.2 mg/kg): 0.48 ± 0.53 ng·h/mL | Bioavailability (high iv dose) ([2]; Portal vein): 5.2 ± 0.8% | Bioavailability (low iv dose) ([2]; Portal vein): 5.4 ± 1.4% | Mean AUC0-inf of 9-NC, Systemic AUC ([2]; Portal vein infusion 0.2 mg/kg): 6.24 ± 2.11 ng·h/mL | Mean plasma concentration, Portal Vein ([2]; ileum port, 0.5 hr): 0.56 ± 0.32 ng/mL | Mean plasma concentration, Systemic ([2]; ileum port, 0.5 hr): 0.12 ng/mL | Mean plasma concentration, Portal Vein ([2]; ileum port, 1 hr): 0.22 ± 0.03 ng/mL | Mean plasma concentration, Systemic ([2]; ileum port, 1 hr): BQL | Mean plasma concentration, Portal Vein ([2]; ileum port, 1.5 hr): 0.34 ± 0.29 ng/mL | Mean plasma concentration, Systemic ([2]; ileum port, 1.5 hr): 0.13 ± 0.04 ng/mL | Mean plasma concentration, Portal Vein ([2]; ileum port, 2 hr): 0.13 ± 0.02 ng/mL | Mean plasma concentration, Systemic ([2]; ileum port, 2 hr): 0.10 ± 0.00 ng/mL | Mean plasma concentration, Portal Vein ([2]; ileum port, 3 hr): 0.12 ± 0.00 ng/mL | Mean plasma concentration, Systemic ([2]; ileum port, 3 hr): 0.17 ng/mL | Mean plasma concentration, Portal Vein ([2]; ileum port, 4 hr): BQL | Mean plasma concentration, Systemic ([2]; ileum port, 4 hr): 0.13 ng/mL | Mean plasma concentration, Portal Vein ([2]; ileum port, 6 hr): 0.10 ng/mL | Mean plasma concentration, Systemic ([2]; ileum port, 6 hr): BQL | Mean plasma concentration, Systemic ([2]; ileum port, 8 hr): 0.14 ng/mL | Mean plasma concentration, Systemic ([2]; ileum port, 12 hr): 0.14 ± 0.02 ng/mL | Mean plasma concentration, Systemic ([2]; ileum port, 24 hr): 0.13 ng/mL | Mean plasma concentration, Portal Vein ([2]; jejunal port, 0.5 hr): 0.41 ± 0.00 ng/mL | Mean plasma concentration, Systemic ([2]; jejunal port, 0.5 hr): 0.14 ng/mL | Mean plasma concentration, Portal Vein ([2]; jejunal port, 1 hr): 0.56 ± 0.47 ng/mL | Mean plasma concentration, Systemic ([2]; jejunal port, 1 hr): 0.15 ng/mL | Mean plasma concentration, Portal Vein ([2]; jejunal port, 2 hr): 0.37 ± 0.10 ng/mL | Mean plasma concentration, Systemic ([2]; jejunal port, 2 hr): 0.14 ng/mL | Mean plasma concentration, Portal Vein ([2]; jejunal port, 3 hr): 0.41 ng/mL | Mean plasma concentration, Systemic ([2]; jejunal port, 3 hr): 0.15 ng/mL | Mean plasma concentration, Portal Vein ([2]; jejunal port, 4 hr): BLOQ | Mean plasma concentration, Systemic ([2]; jejunal port, 4 hr): BQL | Mean plasma concentration, Portal Vein ([2]; jejunal port, 6 hr): BLOQ | Mean plasma concentration, Systemic ([2]; jejunal port, 6 hr): BQL | Mean plasma concentration, Portal Vein ([2]; jejunal port, 8 hr): BLOQ | Mean plasma concentration, Systemic ([2]; jejunal port, 8 hr): 1.36 ± 1.73 ng/mL | Mean plasma concentration, Systemic ([2]; jejunal port, 10 hr): BQL | Mean plasma concentration, Portal Vein ([2]; jejunal port, 12 hr): 0.15 ng/mL | Mean plasma concentration, Systemic ([2]; jejunal port, 12 hr): BQL | Mean plasma concentration, Portal Vein ([2]; jejunal port, 24 hr): BLOQ | Mean plasma concentration, Systemic ([2]; jejunal port, 24 hr): BQL | AUC0-INF ([2]; portal vein samples, 0.2 mg/kg 9-NC via COLON port): 1.48 ± 0.29 ng·h/mL | AUC0-INF ([2]; portal vein samples, 0.2 mg/kg 9-NC via ILEUM port): 1.76 ± 0.95 ng·h/mL | AUC0-INF ([2]; portal vein samples, 0.2 mg/kg 9-NC via JEJUNUM port): 4.46 ± 4.00 ng·h/mL | AUCLast [2, 6]: 0.73 ± 0.63 ng·h/mL | CMAX [2, 6]: 0.79 ± 0.61 ng/mL | MRT [2, 6]: 2.21 ± 1.46 h | TMAX [2, 6]: 1.67 ± 0.29 h | AUCLast [2, 7]: 0.87 ± 0.11 ng·h/mL | CMAX [2, 7]: 0.65 ± 0.20 ng/mL | MRT [2, 7]: 8.65 ± 1.62 h | T1/2 [2, 7]: 6.10 ± 7.50 h | TMAX [2, 7]: 0.34 ± 0.23 h | AUCLast [2, 8]: 0.85 ± 0.55 ng·h/mL | CMAX [2, 8]: 0.66 ± 0.24 ng/mL | MRT [2, 8]: 15.12 ± 1.62 h | T1/2 [2, 8]: 7.59 ± 3.14 h | TMAX [2, 8]: 0.56 ± 0.42 h | AUC0-INF ([2]; systemic samples, 0.2 mg/kg 9-NC via JEJUNUM port): 6.66 ng·h/mL | AUCLast [2, 9]: 0.07 ± 0.06 ng·h/mL | CMAX [2, 9]: 0.08 ± 0.07 ng/mL | F [2, 9]: 0.1 ± 0.1% | TMAX [2, 9]: 0.72 ± 1.11 h | AUCLast [2, 10]: 1.65 ± 1.15 ng·h/mL | CMAX [2, 10]: 0.17 ± 0.01 ng/mL | Cl/F [2, 10]: 85.5 mL/min/kg | F [2, 10]: 1.6 ± 1.2% | TMAX [2, 10]: 2.25 ± 1.06 h | Vz [2, 10]: 1441 L/kg | AUCLast [2, 11]: 1.03 ± 1.34 ng·h/mL | CMAX [2, 11]: 0.96 ± 1.40 ng/mL | Cl/F [2, 11]: 500 mL/min/kg | F [2, 11]: 3.0 ± 3.2% | MRT [2, 11]: 54.11 h | TMAX [2, 11]: 4.00 ± 3.61 h | Vz [2, 11]: 1469 L/kg
